The test system of assay [1] is white spot syndrome virus (WSSV). Briefly: Survival of WSSV-infected shrimp larvae on co-incubation with compound. It counts as in vivo, Litopenaeus vannamei. The following applies: for enhancement of survival rate in WSSV-infected larvae: 72 hpi, 10 mg/L, co-incubation; for decrease of mortality of WSSV-infected larvae after exposure: abstract statement. As for the experimental part:
For in vivo study of co-incubation, C2 and C7 was separately incubated with WSSV and shrimp larvae.
Figure 2 C2 and C7 inhibited WSSV infection in shrimp larvae. (A) Schematic diagram describing the workflow. (B) The survival rate of WSSV-infected shrimp was analyzed in 0.31 to 10 mg/L treatments at 72 hpi. (C) Survivorship curve of WSSV-infected shrimp was analyzed in C2 and C7 up to 10 mg/L treatment. (D) Quantification on copy number of viral genome was tested by exposure to C2 and C7 up to 10 mg/L treatment at 24, 48, and 72 hpi, respectively. The virus-infected shrimps were immersed with the compounds and DMSO at the dose 0.2‰ (v/v). Each value is represented as the mean ± SD normalized to values for no treatment. The p value for each study was determined by Student’s t tests. ** p < 0.01.
[…], shrimp larvae were randomly selected, separated into six-well plates containing ultraviolet light-sterilized aquacultural water, and infected with WSSV (final viral titer of 1.6 × 10^5 copies/µL) in the presence of coumarins for 72 h. Mock negative controls (1% DMSO) were also used. The homogenate of each well containing sick or dead shrimp was subjected to low-speed centrifugation (2000× g). The viral load was quantified by determining the copy number of the viral genome in samples by quantitative reverse transcription polymerase chain reaction (RT-qPCR) assay, as previously described.

Assay [2] has the same test system. Briefly: Preincubation of WSSV with compound before infection of larvae. In kind it is in vivo, Litopenaeus vannamei. To be noted: virus pre-incubated with compound 1–4 h; for increase of survival rate: 10 mg/L. As for the experimental part: For preincubation with immersion, WSSV was preincubated with C2/C7 to a final viral titer of 1.6 × 10^5 copies/µL and up to 10 mg/L coumarin compound or vehicle control in the challenge wells. After 1, 2, and 4 h of incubation, shrimp larvae were added to the challenge well until 72-h post-infection. The surviving shrimp were humanely euthanized with tricaine methane sulfonate (MS-222) at a final concentration of 150 mg/L, followed by quantification of the copy number of the viral genome.

As to “2-amino-4-(4-chlorophenyl)-5-oxo-4H,5H-pyrano[3,2-c]chromene-3-carbonitrile [C7]”, in assay [1], the “enhancement of survival rate in WSSV-infected larvae” value is “more than 65%” and the “decrease of mortality of WSSV-infected larvae after exposure” value is on record as “more than 60%”. For the same molecule, in assay [2], the “effect on WSSV infection (viral genome copy number)” value was “suppressed WSSV infection” and the “increase of survival rate” value is on record as “up to 40%”.
On the same counts, the results for `Cc1ccc(C2C(C#N)=C(N)Oc3c2c(=O)oc2ccccc32)cc1` (centres unmarked) [C2, 2-amino-5-oxo-4-(p-tolyl)-4H,5H-pyrano[3,2-c]chromene-3-carbonitrile] are “more than 65%”, “more than 60%”, “suppressed WSSV infection” and “up to 40%”.
